Results published in US20220030867A1 (priority 2018, published 2022).

What was measured:
[1] = test system: Fusarium culmorum; assay: whole plant or invertebrate; format: in vivo, Fusarium culmorum on wheat spikelets cv. Monsun; settings: in Triticum aestivum, read-out: control of Fusarium culmorum
[2] = test system: Magnaporthe grisea (Pyricularia oryzae); assay: microbe, parasite or virus in culture; format: cell-based; settings: read-out: control of Magnaporthe grisea
[3] = test system: Magnaporthe grisea (Pyricularia oryzae); assay: whole plant or invertebrate; format: in vivo, Magnaporthe grisea on rice leaf segments cv. Ballila; settings: foliar, read-out: control of Magnaporthe grisea
[4] = test system: Sclerotinia sclerotiorum; assay: Sclerotinia sclerotiorum / liquid culture (cottony rot); format: cell-based; settings: growth inhibition photometrically 3-4 days after application, vs untreated control
Description: Sclerotinia sclerotiorum/Liquid Culture (Cottony Rot)
(§1) Mycelia fragments of a newly grown liquid culture of the fungus are directly mixed into nutrient broth (Vogels broth). After placing a (DMSO) solution of test compound into a microtiter plate (96-well format) the nutrient broth containing the fungal material is added. The test plates are incubated at 24° C. and the inhibition of growth is determined photometrically 3-4 days after application.

[5] = test system: Botryotinia fuckeliana (Botrytis cinerea); assay: Botryotinia fuckeliana (Botrytis cinerea) / liquid culture (gray mould); format: cell-based; settings: growth inhibition photometrically 3-4 days after application, vs untreated control
Description: Botryotinia fuckeliana (Botrytis cinerea)/Liquid Culture (Gray Mould)
as §1, with “Conidia” for “Mycelia fragments of a newly grown liquid culture”, “fungus from cryogenic storage” for “fungus”, “format),” for “format)”, “spores” for “material”

[6] = test system: Fusarium culmorum; assay: microbe, parasite or virus in culture; format: cell-based; settings: read-out: control of Fusarium culmorum
[7] = test system: Glomerella lagenarium (Colletotrichum lagenarium); assay: Glomerella lagenarium (Colletotrichum lagenarium) / liquid culture (anthracnose); format: cell-based; settings: Colletotrichum orbiculare, growth inhibition photometrically 3-4 days after application, vs untreated control
Description: Conidia of the fungus from cryogenic storage are directly mixed into nutrient broth (PDB potato dextrose broth). After placing a (DMSO) solution of test compound into a microtiter plate (96-well format), the nutrient broth containing the fungal spores is added. The test plates are incubated at 24° C. and the inhibition of growth is measured photometrically 3-4 days after application.

| SMILES | pest or weed control at 200 ppm [1] [%] | inhibition of growth at 200 ppm [2] [%] | pest or weed control at 200 ppm [3] [%] | inhibition of growth at 20 ppm [4] [%] | inhibition of growth at 200 ppm [5] [%] | inhibition of growth at 200 ppm [6] [%] | inhibition of growth at 200 ppm [7] [%] | melting point [°C] |
| --- | --- | --- | --- | --- | --- | --- | --- | --- |
| Cc1c(NC(=O)[C@@](C)(Cc2ccccc2)CC(C)C)cnc2c(F)cccc12 [Compound F-4, (2R)-2-benzyl-N-(8-fluoro-4-methyl-3-quinolyl)-2,4-dimethyl-pentanamide] | ≥ 80 | ≥ 80 | ≥ 80 | ≥ 80 |  |  |  |  |
| Cc1nc2c(F)cccc2cc1NC(=O)C(C)(Cc1ccccc1)CC(C)C (stereo not shown) [Compound E-86, 2-benzyl-N-(8-fluoro-2-methyl-3-quinolyl)-2,4-dimethyl-pentanamide] | ≥ 80 | ≥ 80 |  | ≥ 80 |  |  |  |  |
| CC(C)(C)CC(Cc1ccccc1)C(=O)Nc1cnc2c(F)cccc2c1 (stereo not shown) [Compound E-98, 2-benzyl-N-(8-fluoro-3-quinolyl)-4,4-dimethyl-pentanamide] |  | ≥ 80 | ≥ 80 |  | ≥ 80 | ≥ 80 | ≥ 80 |  |
| Cc1nc2c(F)cccc2cc1NC(=O)C(C)(Cc1ccccc1)CC1(C)CC1 (stereo not shown) [Compound E-99, 2-benzyl-N-(8-fluoro-2-methyl-3-quinolyl)-2-methyl-3-(1-methylcyclopropyl)propanamide] | ≥ 80 | ≥ 80 | ≥ 80 |  | ≥ 80 | ≥ 80 | ≥ 80 | 151 to 152 |
| Cc1c(NC(=O)[C@H](Cc2ccccc2)CC2(C)CC2)cnc2c(F)cccc12 [Compound F-39, (2S)-2-benzyl-N-(8-fluoro-4-methyl-3-quinolyl)-3-(1-methylcyclopropyl)propanamide] |  | ≥ 80 |  |  | ≥ 80 | ≥ 80 | ≥ 80 |  |
| C=C(Cl)CC(Cc1ccccc1)C(=O)Nc1cnc2c(F)cccc2c1 (stereo not shown) [Compound E-6, 2-benzyl-4-chloro-N-(8-fluoro-3-quinolyl)-pent-4-enamide] |  | ≥ 80 | ≥ 80 |  |  |  |  | 166 to 168 |
| Cc1nc2c(F)cccc2cc1NC(=O)[C@H](Cc1ccccc1)CC(C)(C)C [Compound F-33, (2S)-2-benzyl-N-(8-fluoro-2-methyl-3-quinolyl)-4,4-dimethyl-pentanamide] |  | ≥ 80 |  |  | ≥ 80 | ≥ 80 | ≥ 80 |  |
| C#CCC(C)(Cc1ccccc1)C(=O)Nc1cc2cccc(F)c2nc1C (stereo not shown) [Compound E-2, 2-benzyl-N-(8-fluoro-2-methyl-3-quinolyl)-2-methyl-pent-4-ynamide] | ≥ 80 | ≥ 80 | ≥ 80 |  |  |  |  |  |
| Cc1c(NC(=O)C(C)(Cc2ccccc2)CC(F)(F)F)cnc2c(F)cccc12 (stereo not shown) [Compound E-50, 2-benzyl-4,4,4-trifluoro-N-(8-fluoro-4-methyl-3-quinolyl)-2-methyl-butanamide] | ≥ 80 |  | ≥ 80 |  |  |  |  | 106 to 109 |
| C=C(Cl)C[C@@](C)(Cc1ccccc1)C(=O)Nc1cc2cccc(F)c2nc1C [Compound F-43, (2R)-2-benzyl-4-chloro-N-(8-fluoro-2-methyl-3-quinolyl)-2-methyl-pent-4-enamide] | ≥ 80 |  | ≥ 80 |  | ≥ 80 |  | ≥ 80 |  |
| C=C(Cl)CC(C)(Cc1ccccc1)C(=O)Nc1cc2cccc(F)c2nc1C (stereo not shown) [Compound E-21, 2-benzyl-4-chloro-N-(8-fluoro-2-methyl-3-quinolyl)-2-methyl-pent-4-enamide] | ≥ 80 |  | ≥ 80 |  |  |  |  | 121 to 123 |
| C#CCC(C)(Cc1ccccc1)C(=O)Nc1cnc2c(F)cccc2c1C (stereo not shown) [Compound E-3, 2-benzyl-N-(8-fluoro-4-methyl-3-quinolyl)-2-methyl-pent-4-ynamide] |  | ≥ 80 |  |  |  |  |  |  |
| CC(C)C[C@](C)(Cc1ccccc1)C(=O)Nc1cnc2c(F)cccc2c1 [Compound F-19, (2R)-2-benzyl-N-(8-fluoro-3-quinolyl)-2,4-dimethyl-pentanamide] | ≥ 80 | ≥ 80 |  |  |  |  |  |  |
| C=CCC(C)(Cc1ccccc1)C(=O)Nc1cnc2c(F)cccc2c1 (stereo not shown) [Compound E-78, 2-benzyl-N-(8-fluoro-3-quinolyl)-2-methyl-pent-4-enamide] | ≥ 80 | ≥ 80 |  |  |  |  |  | 146 to 149 |
| Cc1nc2c(F)cccc2cc1NC(=O)[C@H](Cc1ccccc1)CC1(C)CC1 [Compound F-37, (2S)-2-benzyl-N-(8-fluoro-2-methyl-3-quinolyl)-3-(1-methylcyclopropyl)propanamide] | ≥ 80 | ≥ 80 |  |  | ≥ 80 | ≥ 80 | ≥ 80 |  |
| C=C(Cl)CC(C)(Cc1ccccc1)C(=O)Nc1cnc2c(F)cccc2c1C (stereo not shown) [Compound E-20, 2-benzyl-4-chloro-N-(8-fluoro-4-methyl-3-quinolyl)-2-methyl-pent-4-enamide] | ≥ 80 |  | ≥ 80 |  |  |  |  | 124 to 126 |
| C#CCC(Cc1ccccc1)C(=O)Nc1cnc2c(F)cccc2c1C (stereo not shown) [Compound E-95] |  | ≥ 80 |  |  |  |  |  |  |
| Cc1c(NC(=O)C(C)(Cc2ccccc2)CC(C)C)cnc2c(F)cccc12 (stereo not shown) [Compound E-84, 2-benzyl-N-(8-fluoro-4-methyl-3-quinolyl)-2,4-dimethyl-pentanamide] | ≥ 80 | ≥ 80 |  | ≥ 80 |  |  |  | 73 to 79 |
| CC(C)C[C@@](C)(Cc1ccccc1)C(=O)Nc1cnc2c(F)cccc2c1 [Compound F-20, (2S)-2-benzyl-N-(8-fluoro-3-quinolyl)-2,4-dimethyl-pentanamide] | ≥ 80 | ≥ 80 |  | ≥ 80 |  |  |  |  |
| Cc1nc2c(F)cccc2cc1NC(=O)[C@@](C)(Cc1cccc(F)c1)CC(F)(F)F [Compound F-31, (2S)-4,4,4-trifluoro-N-(8-fluoro-2-methyl-3-quinolyl)-2-[(3-fluorophenyl)methyl]-2-methyl-butanamide] | ≥ 80 |  | ≥ 80 | ≥ 80 | ≥ 80 |  | ≥ 80 |  |
| C=C(C)C[C@@](C)(Cc1ccccc1)C(=O)Nc1cnc2c(F)cccc2c1 [Compound F-21, (2S)-2-benzyl-N-(8-fluoro-3-quinolyl)-2,4-dimethyl-pent-4-enamide] | ≥ 80 | ≥ 80 | ≥ 80 | ≥ 80 |  |  |  |  |
| Cc1c(NC(=O)C(Cc2ccccc2)CC(F)(F)F)cnc2c(F)cccc12 (stereo not shown) [Compound E-45, 2-benzyl-4,4,4-trifluoro-N-(8-fluoro-4-methyl-3-quinolyl)-butanamide] | ≥ 80 |  | ≥ 80 |  |  |  |  | 165 to 167 |
| C=C(Cl)CC(Cc1ccccc1)C(=O)Nc1cnc2c(F)cccc2c1C (stereo not shown) [Compound E-5, 2-benzyl-4-chloro-N-(8-fluoro-4-methyl-3-quinolyl)pent-4-enamide] | ≥ 80 | ≥ 80 |  | ≥ 80 |  |  |  | 53 to 58 |
| C=C(C)C[C@](C)(Cc1ccccc1)C(=O)Nc1cnc2c(F)cccc2c1 [Compound F-22, (2R)-2-benzyl-N-(8-fluoro-3-quinolyl)-2,4-dimethyl-pent-4-enamide] |  | ≥ 80 |  |  |  |  |  |  |
| CC(C)CC(C)(Cc1ccccc1)C(=O)Nc1cnc2ccccc2c1 (stereo not shown) [Compound E-85, 2-benzyl-2,4-dimethyl-N-(3-quinolyl)pentanamide] |  | ≥ 80 |  |  |  |  |  | 147 to 148 |
| CC(Cc1ccccc1)(CC1CC1)C(=O)Nc1cnc2c(F)cccc2c1 (stereo not shown) [Compound E-76, 2-benzyl-3-cyclopropyl-N-(8-fluoro-3-quinolyl)-2-methyl-propanamide] |  |  | ≥ 80 |  |  |  |  | 157 to 159 |
| C=C(C)CC(Cc1ccccc1)C(=O)Nc1cnc2c(F)cccc2c1 (stereo not shown) [Compound E-94, 2-benzyl-N-(8-fluoro-3-quinolyl)-4-methyl-pent-4-enamide] |  | ≥ 80 |  |  |  |  |  | 170 to 172 |
